In patent US20050169928A1, “Antibodies which bind to proteins involved in cytoadhesion of plasmodlum falciparum ring-stage-infected erythrocytes” (INSTITUT PASTEUR, priority 2000, published 2005):

Legend:
Assay type in all cases: cell-based, P. falciparum
[1] = test system: ring-stage PA^CSA IE cytoadhesion to SBEC 1D; assay: Ring-stage IE cytoadhesion inhibition assay on SBEC 1D (Example 1); settings: for inhibitory activity on ring-stage IE cytoadhesion to SBEC 1D (in words): ring-stage PA^CSA IE 8 hours post-invasion, glycosaminoglycans, enzymes on target cells, thrombospondin; for sensitivity of ring-stage IE^CSA cytoadhesion to inhibitor: 0.1 mg/ml CSA, or target cells pretreated with 1 U/ml chondroitinase ABC, until the 16th hour after invasion; for time after invasion of maximal inhibition of IE^CSA binding: highly synchronized PA^CSA IE tested every 4 hours throughout the cycle
Description: Gelatin-enriched preparations of mature-stage IE were resuspended at a concentration of 5×10^6 IE/ml in cytoadhesion medium at pH 6.8. Cytoadhesion microassays were then performed on 12-well IFA slides (Institut Pasteur, Paris) as previously described (Pouvelle, B. Fusai, T. Lepolard, C. & Gysin, J. biological and biochemical characteristics of cytoadhesion of Plasmodium falciparum-infected erythrocytes to chondroitin-4-sulfate. Infect. Immun. 66, 4950-4956 (1998)).
Ring-stage cytoadhesion assays were performed with endothelial cells as described above and with placental cryosections as previously described (Gysin, J., Pouvelle, B., Le Tonqueze, M., Edelman, L. & Boffa, M. C., Chondroitin sulfate of thrombomodulin is an adhesion receptor for Plasmodium falciparum-infected erythrocyics. Mol. Biochem. Parasitol. 88, 267-271 (1997)), with 1 to 10% parasitaemia (a 1×10^7 IE/ml suspension).
For cytoadhesion inhibition assays, the IE were incubated with SBEC in the presence of 2.5 μg/ml thrombospondin, 0.1 mg/ml soluble CSA, dermatan sulphate (CSB), chondroitin-6-sulphate (CSC), keratin sulphate (Ker), hyaluronic acid (HA), heparin (Hep) (Fluka, France), or with SBEC previously incubated for 1 hour at 37° C. with 1 U/ml chondrotinase ABC (Fluka, France), 1 to 10 U/ml heparinase III (Hepase III) (Sigma, France) or 5 μg/ml anti-CD36 FA6-152 Mab (gift from Dr. Edelman). Inhibition assays were also carried out in the presence of sera obtained from Senegalese and Cameroonian patients living in areas of endemic malaria. The sera were obtained from primigravida and multigravida women, an adult and a child, absorbed onto O^+ human blood and SBEC ID, and tested at a dilution of 1/20. The results were compared to those for cytoadhesion in the presence of a 1/20 dilution of a pool of control sera from volunteers who had never contacted malaria.
The protease sensitivity of ring-stage IE cytoadhesion was analyzed using 5 μl of packed PA^CSA IE (8 hours post-invasion). IE were incubated with 10 or 100 μg/ml of trypsin TPCK (Signa) or 100 μg/ml of α-chymotrypsin TLCK (Sigma) for 30 minutes at 37° C. The digestion was stopped by adding culture medium containing 10% human plasma. The cells were then washed in cytoadhesion medium and allowed to cytoadhere to SBEC 1D, as previously described, using untreated PA^CSA as a control.

[2] = test system: adherent rIE^CSA/nE and mature IE^CSA on SBEC 1D; assay: Cytoadhesion inhibition and desequestration under flow conditions at 0.05 Pa; settings: B4 200 μg/ml, CSA 10 μg/ml final
Description: In short: Four serial 7 μm normal human placenta cryosections (each of approximately 4 mm×4 mm) of the maternal compartment were mounted on a microscopic slide 75-25 mm and fixed with 0.5% para-formaldehyde in PBS at pH 7.2, for 2 hours at room temperature. After washing several times with PBS and then with RPMI 1640 pH 6.8, the slide is mounted on a perfusing chamber (Immunetics, France). An equipart mixture of 8±4 hours old synchronized rIE^CSA (including nE from the same culture) and 34±4 hours old IE^CSA at a final hematocrit of 25% in RPMI 1640, pH 7.2 were then flow through the chamber for 10 min at 0.05 Pascals. After rinsing for 10 min with the medium at the same shear stress, 100 ug/ml of a 50 kDa CSA (Fluka, France) dissolved in RPMI or 200 ug/ml of mAbs was flushed through the chamber for 10 min at the same shear stress. Slides from 3 experiments were recovered and stained by Giemsa. Mature IE, rIE and nE were counted and the result expressed as arithmetic mean percentage of bound erythrocytes±SD/20 fields of 100× Oil magnification as described elsewhere (Gysin, J., B. Pouvelle, N. Fievet, A. Scherf, and C. Lepolard. 1999. Ex vivo desequestration of Plasmodium falciparum-infected erythrocytes from human placenta by chondroitin sulfate A. Infect Immun. 67:6596-602).

[3] = test system: cytoadhesion of IE on endothelial cells or placenta cryosections; assay: Stage-specific cytoadhesion inhibition on endothelial cells or placenta cryosections (discussion)
Description: Cytoadhesion inhibition and disruption assays were performed on SBEC 1D cells grown to confluence on 12-dot IFA slides as described elsewhere (Pouvelle, B., P. Meyer, C. Robert, L. Bardel and J. Gysin. 1997. Chondroitin-4-sulfate impairs in vitro and in vivo cytoadherence of Plasmodium falciparum infected erythrocytes. Mol Med. 3:508-18) by assessing the laboratory CSA-binding strains FCR3, FCBR, BXII, SUK, HB, IBR and the placenta isolates no. 24, 42,42DJ, 193 and 939. In short: 20 μl of a mixture of synchronized rIE with nE or mIE from corresponding cultures at a parasitaemia of 4-15% for a total 10^7 IE/ml RPMI 1640, pH6.8 were layered per dot of confluent SBEC 1D cells. For the inhibition assay, 20 μl of each mAb at a concentration of 0.2 to 200 μg/ml was deposited simultaneously with rIE or IE and corresponding nE/dot for 2 hours at +37° C. For the disruption assay the same mAbs were added after a one hour preincubation of IEs and nEs with endothelial cells for an additional 1 hour. Unbound erythrocytes were removed by vigorously washing the slides in RPMI 1640, pH6.8. Bound IE and nE were fixed with 0.25% glutaraldehyde in PBS pH7.2. The inhibition and disruption of cytoadhesion was expressed as bound IE and nE/mm^2 of confluent endothelial cells in the presence of mAbs, in comparison to unrelated mouse IgG of the same IgG isotype (Sigma, USA). […]

hyaluronic acid
inhibitory activity on ring-stage IE cytoadhesion to SBEC 1D (in words) [1]: no activity

chondroitinase ABC
sensitivity of ring-stage IE^CSA cytoadhesion to inhibitor [1]: insensitive
time after invasion of maximal inhibition of IE^CSA binding [1]: 24 h
inhibitory activity on ring-stage IE cytoadhesion to SBEC 1D (in words) [1]: no significant inhibitory activity

chondroitin-sulphate A [CSA]
desequestration of adherent mature IE^CSA by flushing [2]: removed only the mature forms
sensitivity of ring-stage IE^CSA cytoadhesion to inhibitor [1]: insensitive
time after invasion of maximal inhibition of IE^CSA binding [1]: 24 h
inhibition of cytoadhesion of mature blood stages ([3]; mature blood stages): > 90%
inhibition of cytoadhesion of young trophozoites ([3]; young trophozoites (16-20 hours), RSP-2 and PfEMP1 both expressed): ≤ 25%

hyaluronate lyase
inhibitory activity on ring-stage IE cytoadhesion to SBEC 1D (in words) [1]: low level of inhibitory activity

dermatan-sulphate
inhibitory activity on ring-stage IE cytoadhesion to SBEC 1D (in words) [1]: not specific

Thrombospondin: mature-stage IE adhesion receptor protein tested at 2.5 μg/ml
inhibitory activity on ring-stage IE cytoadhesion to SBEC 1D (in words) [1]: no effect

heparin
inhibition of ring-stage cytoadhesion ([1]; Heparin 100 μg/ml, heparinase treatment of target cells, SBEC 1D): about 50%

B1: trypsin: protease used to treat ring-stage IE (protein, UniProt P00760 24-246, looked up)
Serine protease 1: IVGGYTCGANTVPYQVSLNSGYHFCGGSLINSQWVVSAAHCYKSGIQVRLGEDNINVVEGNEQFISASKSIVHPSYNSNTLNNDIMLIKLKSAASLNSRVASISLPTSCASAGTQCLISGWGNTKSSGTSYPDVLKCLKAPILSDSSCKSAYPGQITSNMFCAGYLEGGKDSCQGDSGGPVVCSGKLQGIVSWGSGCAQKNKPGVYTKVCNYVSWIKQTIASN
modifications: TPCK-treated
notes: protease used to treat ring-stage IE
inhibition of ring-stage IE adhesion after protease treatment of IE ([1]; protease concentration 100 μg/ml): substantially inhibited
